# Laboratory results as given in PubChem BioAssay (NCI).
#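 Test compounds were applied to cells in 96-well plates for 48 hours at 5 doses. TGI denotes the concentration required for complete inhibition of growth.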
# Tests used:
# Experiment in all cases: NCI anticancer screen, dose series, 48 h
# [1] = tested on: NCI/ADR-RES ovarian
# [2] = tested on: COLO 205 colon
# [3] = tested on: HL-60(TB) leukemia
# [4] = tested on: UACC-257 melanoma
# [5] = tested on: HOP-92 NSCLC
# [6] = tested on: HCC-2998 colon
# [7] = tested on: BT-549 breast
# [8] = tested on: SN12C renal
# [9] = tested on: SK-MEL-2 melanoma
# [10] = tested on: SF-268 CNS
# [11] = tested on: MDA-MB-231 breast
# [12] = tested on: TK-10 renal
# [13] = tested on: K-562 leukemia
# [14] = tested on: SW-620 colon
# [15] = tested on: HCT-15 colon
# [16] = tested on: MDA-N
# [17] = tested on: PC-3 prostate
# [18] = tested on: MALME-3M melanoma
# [19] = tested on: NCI-H23 lung
# [20] = tested on: NCI-H522 lung
# [21] = tested on: ACHN renal
# [22] = tested on: U251 CNS
# [23] = tested on: 786-0 renal
# [24] = tested on: SF-539 CNS
# [25] = tested on: UACC-62 melanoma
# [26] = tested on: A498 renal
# [27] = tested on: MCF7 breast
# [28] = tested on: NCI-H226 lung
# [29] = tested on: MOLT-4 leukemia
# [30] = tested on: SK-MEL-28 melanoma
# [31] = tested on: CCRF-CEM leukemia
# [32] = tested on: RPMI-8226 leukemia
# [33] = tested on: IGROV1 ovarian
# [34] = tested on: NCI-H460 lung
# [35] = tested on: OVCAR-8 ovarian
# [36] = tested on: LOX IMVI melanoma
# [37] = tested on: SR leukemia
# [38] = tested on: SK-MEL-5 melanoma
# [39] = tested on: HS 578T breast
# [40] = tested on: HCT-116 colon
# [41] = tested on: OVCAR-5 ovarian
# [42] = tested on: KM12 colon
# [43] = tested on: MDA-MB-435
# [44] = tested on: M14 melanoma
# [45] = tested on: EKVX NSCLC
# [46] = tested on: CAKI-1 renal
# [47] = tested on: HT29 colon
# [48] = tested on: SF-295 CNS
# [49] = tested on: SNB-19 CNS
# [50] = tested on: T-47D breast
# [51] = tested on: RXF 393 renal
# [52] = tested on: DU-145 prostate
# [53] = tested on: OVCAR-3 ovarian
# [54] = tested on: SK-OV-3 ovarian
# [55] = tested on: A549 NSCLC
# [56] = tested on: OVCAR-4 ovarian
smiles,measurement,setting,value
Nc1c2c(nc3ccccc13)CCCCCC2,TGI,[1],> 100 µM
same,TGI,[2],30.6 µM
same,TGI,[3],31.6 µM
same,TGI,[4],31.1 µM
same,TGI,[5],32.1 µM
same,TGI,[6],27.4 µM
same,TGI,[7],> 100 µM
same,TGI,[8],> 100 µM
same,TGI,[9],29.2 µM
same,TGI,[10],> 100 µM
same,TGI,[11],42.5 µM
same,TGI,[12],35.1 µM
same,TGI,[13],69 µM
same,TGI,[14],50.1 µM
same,TGI,[15],> 100 µM
same,TGI,[16],30.4 µM
same,TGI,[17],> 100 µM
same,TGI,[18],32.6 µM
same,TGI,[19],> 100 µM
same,TGI,[20],56.3 µM
same,TGI,[21],86.3 µM
same,TGI,[22],80.2 µM
same,TGI,[23],30 µM
same,TGI,[24],32.3 µM
same,TGI,[25],33.7 µM
same,TGI,[26],74 µM
same,TGI,[27],> 100 µM
same,TGI,[28],> 100 µM
same,TGI,[29],85 µM
same,TGI,[30],30 µM
same,TGI,[31],52.4 µM
same,TGI,[32],43.8 µM
same,TGI,[33],> 100 µM
same,TGI,[34],38.9 µM
same,TGI,[35],> 100 µM
same,TGI,[36],31.8 µM
same,TGI,[37],38 µM
same,TGI,[38],31.3 µM
same,TGI,[39],> 100 µM
same,TGI,[40],64.1 µM
CC1=NN(c2ccccc2)C(=O)/C1=C/c1ccc(O)cc1,TGI,[1],> 100 µM
same,TGI,[2],> 100 µM
same,TGI,[3],> 100 µM
same,TGI,[4],> 100 µM
same,TGI,[5],> 100 µM
same,TGI,[6],> 100 µM
same,TGI,[41],> 100 µM
same,TGI,[42],> 100 µM
same,TGI,[8],> 100 µM
same,TGI,[9],> 100 µM
same,TGI,[10],> 100 µM
same,TGI,[43],> 100 µM
same,TGI,[44],> 100 µM
same,TGI,[45],> 100 µM
same,TGI,[11],> 100 µM
same,TGI,[12],> 100 µM
same,TGI,[13],> 100 µM
same,TGI,[14],> 100 µM
same,TGI,[15],> 100 µM
same,TGI,[46],> 100 µM
same,TGI,[16],> 100 µM
same,TGI,[17],> 100 µM
same,TGI,[47],> 100 µM
same,TGI,[48],> 100 µM
same,TGI,[18],> 100 µM
same,TGI,[19],> 100 µM
same,TGI,[49],> 100 µM
same,TGI,[50],> 100 µM
same,TGI,[21],> 100 µM
same,TGI,[51],> 100 µM
same,TGI,[52],> 100 µM
same,TGI,[22],> 100 µM
same,TGI,[23],> 100 µM
same,TGI,[24],> 100 µM
same,TGI,[25],> 100 µM
same,TGI,[26],> 100 µM
same,TGI,[27],> 100 µM
same,TGI,[28],> 100 µM
same,TGI,[53],> 100 µM
same,TGI,[29],> 100 µM
same,TGI,[30],> 100 µM
same,TGI,[31],> 100 µM
same,TGI,[32],> 100 µM
same,TGI,[33],> 100 µM
same,TGI,[34],> 100 µM
same,TGI,[35],> 100 µM
same,TGI,[36],> 100 µM
same,TGI,[54],> 100 µM
same,TGI,[55],> 100 µM
same,TGI,[37],> 100 µM
same,TGI,[56],> 100 µM
same,TGI,[38],> 100 µM
same,TGI,[39],> 100 µM
same,TGI,[40],> 100 µM
